Key:
[1] = Ability to inhibit WI-L2 […] leukemia tumor cell growth in culture after 48 hr of its exposure.; type: functional, cell-based; conditions: Homo sapiens, WIL2, 48 h
[2] = test system: L1210; assay: Ability to inhibit L1210 murine leukemia tumor cell growth in culture after 48 hr of its exposure.; type: functional, cell-based; conditions: Mus musculus, L1210, 48 h
[3] = target: T1, Dihydrofolate reductase (Homo sapiens, UniProt P00374)
T1 sequence (P00374 whole entry): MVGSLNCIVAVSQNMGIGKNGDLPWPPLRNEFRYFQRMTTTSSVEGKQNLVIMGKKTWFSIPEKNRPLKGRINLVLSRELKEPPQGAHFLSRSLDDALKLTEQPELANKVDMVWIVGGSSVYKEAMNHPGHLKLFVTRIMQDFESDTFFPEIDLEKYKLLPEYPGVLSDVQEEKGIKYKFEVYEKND
Description: Ability to inhibit purified Dihydrofolate reductase from human leukemic lymphoblasts was determined spectrophotometrically at 340 nM.

[4] = test system: L1210; assay: Ability to inhibit MTX-resistant L1210/R81 tumor cell growth was determined.; conditions: Mus musculus

Compound	IC50 [1] [nM]	IC50 [2] [nM]	IC50 [3] [nM]	IC50 [4] [nM]
Nc1nc(N)c2nc(CNc3ccc(C(=O)N[C@@H](CCC(=O)O)C(=O)O)cc3)cnc2n1 [AMINOPTERIN]	7.1	–	–	–
CN(Cc1cnc2nc(N)nc(N)c2n1)c1ccc(C(=O)NC(CC(C#N)C(=O)O)C(=O)O)cc1 (stereo unspecified)	–	18	57	–
C=C(CC(NC(=O)c1ccc(NCc2cnc3nc(N)nc(N)c3n2)cc1)C(=O)O)C(=O)O (stereo unspecified)	20	29	88	–
C=C(CC(NC(=O)c1ccc(N(C)Cc2cnc3nc(N)nc(N)c3n2)cc1)C(=O)O)C(=O)O (stereo unspecified)	48	870	44	–
CN(Cc1cnc2nc(N)nc(N)c2n1)c1ccc(C(=O)N[C@@H](CCC(=O)O)C(=O)O)cc1 [METHOTREXATE]	13	–	–	200000
